Article PMC7501227, “Flatfishes colonised freshwater environments by acquisition of various DHA biosynthetic pathways” (Communications Biology, 2020)

Key:
[1] = target: T1, Fads2 (A. finis) (Apionichthys finis, UniProt A0A7G1GDB3); assay: yeast co-expression with zebrafish Elovl2, GC of FAMEs; assay type: cell-based; parameters: full ORF in pYES2, expressed in S. cerevisiae INVSc1; settings: Δ6 desaturation; 24:5n-3 formed in the yeast from 22:5n-3 by zebrafish Elovl2; normalised to 18:3n-3
[2] = target: T2, Fads2a (H. mentalis) (Hypoclinemus mentalis, UniProt A0A7G1GDA4); assay: yeast expression, GC of FAMEs, % conversion; assay type: cell-based; settings: Δ6 desaturation; yeast culture 48 h, 30 °C
T2 construct: full ORF in pYES2, 442 residues, expressed in S. cerevisiae INVSc1
T2 sequence (A0A7G1GDA4 entry or part of it): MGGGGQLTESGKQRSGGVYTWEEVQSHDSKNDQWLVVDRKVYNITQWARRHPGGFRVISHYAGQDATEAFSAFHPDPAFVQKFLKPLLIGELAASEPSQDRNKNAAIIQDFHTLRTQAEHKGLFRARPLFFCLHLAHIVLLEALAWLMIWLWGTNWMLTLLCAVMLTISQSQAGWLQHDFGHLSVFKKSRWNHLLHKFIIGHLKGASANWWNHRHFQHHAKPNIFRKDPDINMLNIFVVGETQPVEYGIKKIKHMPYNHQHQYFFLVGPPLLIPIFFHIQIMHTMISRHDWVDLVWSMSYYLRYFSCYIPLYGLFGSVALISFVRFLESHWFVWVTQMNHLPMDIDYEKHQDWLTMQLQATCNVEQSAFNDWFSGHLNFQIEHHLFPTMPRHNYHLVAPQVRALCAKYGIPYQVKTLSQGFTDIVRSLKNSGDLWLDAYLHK

[3] = target: T1, Fads2 (A. finis); settings: Δ6 desaturation; yeast culture 48 h, 30 °C
[4] = target: T3, Elovl5 (T. maculatus) (Trinectes maculatus, UniProt A0A7G1GDF5); assay: yeast expression, GC of FAMEs, % conversion; assay type: cell-based; settings: elongation of C18 substrate; yeast culture 48 h, 30 °C
T3 construct: full ORF in pYES2, expressed in S. cerevisiae INVSc1
T3 sequence (A0A7G1GDF5 1-294): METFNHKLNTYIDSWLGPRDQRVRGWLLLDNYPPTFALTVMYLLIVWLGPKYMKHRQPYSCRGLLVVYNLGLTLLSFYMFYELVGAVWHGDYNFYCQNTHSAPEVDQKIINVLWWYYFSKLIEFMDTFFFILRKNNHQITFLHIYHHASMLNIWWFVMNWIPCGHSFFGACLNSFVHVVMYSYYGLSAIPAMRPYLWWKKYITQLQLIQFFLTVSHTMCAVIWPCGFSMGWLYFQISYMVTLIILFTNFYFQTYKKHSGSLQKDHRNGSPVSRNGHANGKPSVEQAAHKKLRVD

[5] = target: T4, Elovl5 (H. mentalis) (Hypoclinemus mentalis, UniProt A0A7G1GDF4); assay: yeast expression, GC of FAMEs, % conversion; assay type: cell-based; settings: elongation of C18 substrate; yeast culture 48 h, 30 °C
T4 construct: full ORF in pYES2, expressed in S. cerevisiae INVSc1
T4 sequence (A0A7G1GDF4 1-294): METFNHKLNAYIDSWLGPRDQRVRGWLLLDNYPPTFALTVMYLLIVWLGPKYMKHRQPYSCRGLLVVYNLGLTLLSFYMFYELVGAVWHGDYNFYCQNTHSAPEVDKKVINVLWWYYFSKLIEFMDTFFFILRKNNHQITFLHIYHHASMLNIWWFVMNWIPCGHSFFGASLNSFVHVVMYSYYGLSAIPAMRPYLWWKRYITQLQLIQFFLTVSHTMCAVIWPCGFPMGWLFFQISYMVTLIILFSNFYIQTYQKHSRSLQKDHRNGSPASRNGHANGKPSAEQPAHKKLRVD

[6] = target: T5, Elovl5 (G. melas) (Gymnachirus melas, UniProt A0A7G1GDB9); assay: yeast expression, GC of FAMEs, % conversion; assay type: cell-based; settings: elongation of C18 substrate; yeast culture 48 h, 30 °C
T5 construct: full ORF in pYES2, expressed in S. cerevisiae INVSc1
T5 sequence (A0A7G1GDB9 1-294): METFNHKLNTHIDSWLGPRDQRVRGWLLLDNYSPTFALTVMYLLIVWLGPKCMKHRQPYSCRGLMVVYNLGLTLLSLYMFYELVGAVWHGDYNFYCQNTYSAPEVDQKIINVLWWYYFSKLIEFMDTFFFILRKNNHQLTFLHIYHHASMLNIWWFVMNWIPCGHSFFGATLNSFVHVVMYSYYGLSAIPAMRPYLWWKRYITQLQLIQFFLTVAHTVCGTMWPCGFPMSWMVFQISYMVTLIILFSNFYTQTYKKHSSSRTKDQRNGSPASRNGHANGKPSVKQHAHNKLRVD

T1 sequence (A0A7G1GDB3 entry or part of it): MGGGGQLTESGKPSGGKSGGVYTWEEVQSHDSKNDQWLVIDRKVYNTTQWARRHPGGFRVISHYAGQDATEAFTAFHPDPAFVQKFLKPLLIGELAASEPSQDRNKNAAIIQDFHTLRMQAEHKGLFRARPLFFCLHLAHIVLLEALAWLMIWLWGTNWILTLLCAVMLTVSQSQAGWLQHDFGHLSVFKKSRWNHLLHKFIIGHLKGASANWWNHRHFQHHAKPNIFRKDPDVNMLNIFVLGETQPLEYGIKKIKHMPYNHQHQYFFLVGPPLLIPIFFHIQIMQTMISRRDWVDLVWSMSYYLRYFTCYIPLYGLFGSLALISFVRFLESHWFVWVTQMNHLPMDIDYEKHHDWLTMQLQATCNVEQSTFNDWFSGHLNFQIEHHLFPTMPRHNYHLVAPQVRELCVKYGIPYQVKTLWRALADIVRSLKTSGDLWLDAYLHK

For `CC/C=C\C/C=C\C/C=C\C/C=C\C/C=C\CCCCCCCC(=O)O` [24:5n − 3], the “yeast co-expression with zebrafish Elovl2, GC of FAMEs” value [1] was “desaturation at the highest efficiency among the four species”.

For `CC/C=C\C/C=C\C/C=C\CCCCCCCC(=O)O` [α-linolenic acid], the “yeast expression, GC of FAMEs, % conversion” value [2] was “The two Fads2, namely Fads2a and Fads2b, showed distinct activities” and the “yeast expression, GC of FAMEs, % conversion” value [3] was “The Fads2 isolated from A. finis showed”.

`CC/C=C\C/C=C\C/C=C\C/C=C\CCCCC(=O)O` [18:4n − 3] was tested, and the “yeast expression, GC of FAMEs, % conversion” value [4] was “The Elovl5 showed elongase activities towards C18 to C22 substrates”, the “yeast expression, GC of FAMEs, % conversion” value [5] was “The Elovl5 performed elongations of C18 to C22 substrates” and the “yeast expression, GC of FAMEs, % conversion” value [6] was “The G. melas Elovl5 exhibited activity towards C18 to C22 substrates”.
